Measurements from patent US20140255402A1 (priority 2013, published 2014).

System: NALM/6 cells
Parameters: species or system mice
Details: mouse, in vivo

## Nc1ccn([C@@H]2O[C@H](CO)[C@@H](O)[C@@H]2O)c(=O)n1 [Ara-C, Cytarabine]
  Survival difference as compared to placebo: no significant survival difference
